Measured values from ChEMBL document CHEMBL3734730, “Discovery of novel 2-benzylisoquinolin-1(2H)-ones as potent vasodilative agents” (Bioorg Med Chem Lett, 2015).
One block for each molecule: values may come before it. The source made the active and inactive calls. The calls are words filed in the database; no cut-off is given here.

Assays:
[1] = Vasodilative activity in isolated Sprague-Dawley rat Superior mesenteric arterial ring assessed as reduction in KCl-induced contraction by wire myograph method relative to control; type: functional
[2] = Vasodilative activity in isolated Sprague-Dawley rat Superior mesenteric arterial ring assessed as reduction in KCl-induced contraction at 10^-5 by wire myograph method; type: functional; set-up: scale not given: the % may be the effect or the level left
Rattus norvegicus [3] = assay: Antihypertensive activity in SHR rat assessed as reduced systolic pressure at 2 mg/kg, po after 2 hrs by tail-cuff plethysmography (reference value: 2 mmHg); type: functional, Blood
Rattus norvegicus [4] = assay: Antihypertensive activity in SHR rat assessed as reduced diastolic pressure at 2 mg/kg, po after 2 hrs by tail-cuff plethysmography (reference value: 2 mmHg); type: functional, Blood
[5] = Vasodilative activity in isolated Sprague-Dawley rat mesenteric arterial ring assessed as reduction in phenylephrine-induced contraction at 10 uM pretreated for 30 mins followed by addition of 10^-8 to 10^-4 M phenylephrine by wire myograph method relative to control; type: functional; conditions: Mesenteric artery
[6] = Vasodilative activity in isolated Sprague-Dawley rat second-order mesenteric arterial ring assessed as reduction in KCl-induced contraction by wire myograph method relative to control; type: functional; conditions: Mesenteric artery
[7] = Vasodilative activity in isolated Sprague-Dawley rat third-order mesenteric arterial ring assessed as reduction in KCl-induced contraction by wire myograph method relative to control; type: functional; conditions: Mesenteric artery
[8] = Vasodilative activity in isolated Sprague-Dawley rat renal arterial ring assessed as reduction in KCl-induced contraction by wire myograph method relative to control; type: functional; conditions: Renal artery
[9] = Vasodilative activity in isolated Sprague-Dawley rat cerebral basilar arterial ring assessed as reduction in KCl-induced contraction by wire myograph method relative to control; type: functional; conditions: Basilar artery
[10] = Vasodilative activity in isolated Sprague-Dawley rat coronary artery assessed as reduction in KCl-induced contraction by wire myograph method relative to control; type: functional, tissue-based
Rattus norvegicus [11] = assay: Antihypertensive activity in SHR rat assessed as reduced systolic pressure at 1 mg/kg, po after 2 hrs by tail-cuff plethysmography (reference value: 2 mmHg); type: functional, Blood
Rattus norvegicus [12] = assay: Antihypertensive activity in SHR rat assessed as reduced systolic pressure at 4 mg/kg, po after 2 hrs by tail-cuff plethysmography (reference value: 2 mmHg); type: functional, Blood
Rattus norvegicus [13] = assay: Antihypertensive activity in SHR rat assessed as reduced systolic pressure at 8 mg/kg, po after 2 hrs by tail-cuff plethysmography (reference value: 2 mmHg); type: functional, Blood
Rattus norvegicus [14] = assay: Antihypertensive activity in SHR rat assessed as reduced diastolic pressure at 1 mg/kg, po after 2 hrs by tail-cuff plethysmography (reference value: 2 mmHg); type: functional, Blood
Rattus norvegicus [15] = assay: Antihypertensive activity in SHR rat assessed as reduced diastolic pressure at 4 mg/kg, po after 2 hrs by tail-cuff plethysmography (reference value: 2 mmHg); type: functional, Blood
Rattus norvegicus [16] = assay: Antihypertensive activity in SHR rat assessed as reduced diastolic pressure at 8 mg/kg, po after 2 hrs by tail-cuff plethysmography (reference value: 2 mmHg); type: functional, Blood
Rattus norvegicus [17] = assay: Antihypertensive activity in SHR rat assessed as reduced systolic pressure at 4 mg/kg, po after 0.5 hrs by tail-cuff plethysmography; type: functional
Rattus norvegicus [18] = assay: Antihypertensive activity in SHR rat assessed as reduced systolic pressure at 4 mg/kg, po after 1 hr by tail-cuff plethysmography; type: functional, Blood
Rattus norvegicus [19] = assay: Antihypertensive activity in SHR rat assessed as reduced systolic pressure at 4 mg/kg, po after 5 hrs by tail-cuff plethysmography; type: functional, Blood
Rattus norvegicus [20] = assay: Antihypertensive activity in SHR rat assessed as reduced diastolic pressure at 4 mg/kg, po after 0.5 hrs by tail-cuff plethysmography; type: functional, Blood
Rattus norvegicus [21] = assay: Antihypertensive activity in SHR rat assessed as reduced diastolic pressure at 4 mg/kg, po after 1 hr by tail-cuff plethysmography; type: functional
Rattus norvegicus [22] = assay: Antihypertensive activity in SHR rat assessed as reduced diastolic pressure at 4 mg/kg, po after 4 hrs by tail-cuff plethysmography; type: functional
Rattus norvegicus [23] = assay: Antihypertensive activity in po-dosed SHR rat assessed as reduced diastolic pressure after 2 hrs by tail-cuff plethysmography; type: functional, organism-based; conditions: Blood
Rattus norvegicus [24] = assay: Antihypertensive activity in po-dosed SHR rat assessed as reduced systolic pressure after 2 hrs by tail-cuff plethysmography; type: functional, organism-based; conditions: Blood

- EC50 [1]: 3160 nM
SMILES: O=c1c2ccc(O)cc2ccn1Cc1ccccc1
- Rmax [1]: 74.2%
- Activity [2]: 64.3%

- EC50 [1]: 501 nM
SMILES: COc1cc(O)c2c(=O)n(Cc3ccc(OC)c(OC)c3)ccc2c1
- Rmax [1]: 91.6%
- Activity [2]: 81.3%

- EC50 [1]: 2000 nM
SMILES: COc1cc2ccn(Cc3cccc([N+](=O)[O-])c3)c(=O)c2cc1OC
- Rmax [1]: 67.4%
- Activity [2]: 57.4%

SMILES: COc1cc2ccn(Cc3ccccc3)c(=O)c2cc1OC
- Activity [2]: 42.3%

SMILES: COc1cc2ccn(Cc3ccc(Cl)c(Cl)c3)c(=O)c2cc1OC
- Activity [2]: 26.6%

SMILES: COC(=O)c1cccc(Cn2ccc3cc(OC)c(OC)cc3c2=O)c1
- Activity [2]: 37.6%

- EC50 [1]: 3980 nM
SMILES: COC(=O)c1cccc(Cn2ccc3cc4c(cc3c2=O)OCO4)c1
- Rmax [1]: 51.4%
- Activity [2]: 50.6%

- EC50 [1]: 501 nM
SMILES: COc1cc(OC)c2c(=O)n(Cc3ccc(OCc4ccc(F)cc4)c(OC)c3)ccc2c1
- Rmax [1]: 75.3%
- Activity [2]: 74.1%

- EC50 [1]: 0.316 nM
SMILES: CCOC(=O)C1=C(C)NC(C)=C(C(=O)OC)C1c1cccc([N+](=O)[O-])c1 (stereo not given) [NITRENDIPINE]
- Rmax [1]: 99.8%
- Activity [2]: 99.9%
- Activity (Rattus norvegicus [3]): 9 mmHg
- Activity (Rattus norvegicus [4]): 5 mmHg

- EC50 [1]: 3980 nM
SMILES: COc1cc2ccn(Cc3cccc(F)c3)c(=O)c2cc1OC
- Rmax [1]: 54.2%
- Activity [2]: 54%

- EC50 [1]: 15800 nM
SMILES: COc1cc2ccn(Cc3cc(OC)c(OC)c(OC)c3)c(=O)c2cc1OC
- Rmax [1]: 73.1%
- Activity [2]: 48.4%

SMILES: COc1cc2ccn(Cc3ccc(F)cc3)c(=O)c2cc1OC
- Activity [2]: 35.2%

- EC50 [1]: 5010 nM
SMILES: COc1cc2ccn(Cc3cccc(N)c3)c(=O)c2cc1OC
- Rmax [1]: 52.3%
- Activity [2]: 51%

- EC50 [1]: 794 nM
SMILES: COc1ccc(Cn2ccc3cc(OC)ccc3c2=O)cc1
- Rmax [1]: 90.8%
- Activity [2]: 83.7%

- EC50 [1]: 25100 nM
SMILES: O=c1c2cc(O)ccc2ccn1Cc1ccccc1
- Rmax [1]: 60.6%
- Activity [2]: 48.5%

SMILES: O=C(O)c1cccc(Cn2ccc3cc4c(cc3c2=O)OCO4)c1
- Activity [2]: 34.2%

- EC50 [1]: 3160 nM
SMILES: COc1ccc2c(=O)n(Cc3ccc(OC)c(OC)c3)ccc2c1
- Rmax [1]: 84.7%
- Activity [2]: 59%

- EC50 [1]: 200 nM
- EC50 [6]: 20 nM
- EC50 [7]: 126 nM
- EC50 [8]: 631 nM
- EC50 [9]: 398 nM
- EC50 [10]: 2000 nM
SMILES: COc1ccc(Cn2ccc3cccc(OC)c3c2=O)cc1
- Rmax [1]: 106%
- Activity [2]: 96.3%
- inhibition [5]: Active
- Emax [6]: 95.4%
- Emax [7]: 99.9%
- Emax [8]: 122%
- Emax [9]: 103%
- Emax [10]: 107%
- Activity (Rattus norvegicus [11]): 6 mmHg
- Activity (Rattus norvegicus [3]): 14 mmHg
- Activity (Rattus norvegicus [12]): 38 mmHg
- Activity (Rattus norvegicus [13]): 46 mmHg
- Activity (Rattus norvegicus [14]): 10 mmHg
- Activity (Rattus norvegicus [4]): 16 mmHg
- Activity (Rattus norvegicus [15]): 44 mmHg
- Activity (Rattus norvegicus [16]): 53 mmHg
- Activity (Rattus norvegicus [17]): 4 mmHg
- Activity (Rattus norvegicus [18]): 7 mmHg
- Activity (Rattus norvegicus [19]): 6 mmHg
- Activity (Rattus norvegicus [20]): 0 mmHg
- Activity (Rattus norvegicus [21]): 8 mmHg
- Activity (Rattus norvegicus [22]): 10 mmHg
- inhibition (Rattus norvegicus [23]): Dose-dependent effect
- inhibition (Rattus norvegicus [24]): Dose-dependent effect

- EC50 [1]: 1000 nM
SMILES: COc1cc(OC)c2c(=O)n(Cc3ccc(OC)c(OC)c3)ccc2c1
- Rmax [1]: 76.4%
- Activity [2]: 66.8%

- EC50 [1]: 2000 nM
SMILES: COc1ccc2c(=O)n(Cc3cc(OC)c(OC)c(OC)c3)ccc2c1
- Rmax [1]: 84%
- Activity [2]: 72%

- EC50 [1]: 2510 nM
SMILES: COc1cccc2ccn(Cc3ccccc3)c(=O)c12
- Rmax [1]: 71.3%
- Activity [2]: 63.2%

- EC50 [1]: 6310 nM
SMILES: COc1cc(OC)c2c(=O)n(Cc3cc(OC)c(OC)c(OC)c3)ccc2c1
- Rmax [1]: 89.5%
- Activity [2]: 53.1%

- EC50 [1]: 2000 nM
SMILES: COc1ccc2c(=O)n(Cc3ccccc3)ccc2c1
- Rmax [1]: 61.8%
- Activity [2]: 60.1%

- EC50 [1]: 251 nM
SMILES: COc1cc(Cn2ccc3cccc(OC)c3c2=O)cc(OC)c1OC
- Rmax [1]: 98.7%
- Activity [2]: 93.8%
- inhibition [5]: Active
- Activity (Rattus norvegicus [11]): 3 mmHg
- Activity (Rattus norvegicus [3]): 15 mmHg
- Activity (Rattus norvegicus [12]): 34 mmHg
- Activity (Rattus norvegicus [13]): 44 mmHg
- Activity (Rattus norvegicus [14]): 1 mmHg
- Activity (Rattus norvegicus [4]): 12 mmHg
- Activity (Rattus norvegicus [15]): 39 mmHg
- Activity (Rattus norvegicus [16]): 49 mmHg
- inhibition (Rattus norvegicus [23]): Dose-dependent effect
- inhibition (Rattus norvegicus [24]): Dose-dependent effect

- EC50 [1]: 398 nM
SMILES: COc1ccc2c(=O)n(Cc3ccc(OCc4ccc(F)cc4)c(OC)c3)ccc2c1
- Rmax [1]: 94.3%
- Activity [2]: 82.4%
